Assay [1] in a line: Half head test, shampoo versus standard. It counts as in vivo, human. The method, then: Each test was conducted on 10 volunteers by trained and skilled people. Each half of the head was prewashed and then treated with the corresponding products. During the test, performance properties, such as skin feel, were evaluated first, followed by such parameters as combability, feel, luster and volume.

The nature of assay [2]: Adsorption of sodium lauryl ether sulfate onto skin. Also on record: species or system human. The note with it: FIG. 4; versus standard co-surfactant cocoglutamate.
Assay [3] is described as follows: Sensory assessment of skin feel on the treated forearm. The note with it: FIG. 1; versus standard co-surfactant Cocamidopropylbetaine; inside of forearm. Format: in vivo, human. An excerpt:
The conditioning properties of two surfactant mixtures were compared with one another by sensory assessment. After the sample composition had been completely absorbed onto the skin, the upper side of the middle and index fingers was slowly drawn without pressing over the treated inside of the forearm. If the skin surface was felt to be without friction, this corresponded to a soft skin feel.
In FIG. 1, marks in the left column favor the standard co-surfactant and marks in the right column favor the inventive co-surfactant for that property. In FIG. 1, square marks indicate a high degree of significance; diamonds indicate a medium degree of significance and circles indicate a low degree of significance (as indicated also by the length of the horizontal lines through the marks).

The mark [4] stands for this setting: FIG. 2, versus standard co-surfactant Cocamidopropylbetaine, no added polymer.
Where [5] appears, read: FIG. 3, versus standard co-surfactant Cocamidopropylbetaine and a polymer.

As for Laureth-7 Citrate, in assay [1] (setting [4]), the “Combability of hair in the dry and wet state” value is “can be combed far better both in the dry and in the wet state”; the “Feel properties of hair” value was “distinctly better”. In assay [1] (FIG. 2, versus standard co-surfactant Cocamidopropylbetaine, no added polymer, 10 volunteers), the Conditioning properties result is on record as “clearly superior conditioning properties”. Besides, in assay [1] (setting [5]), the “Combability of dry hair” value is “improved combability of dry hair” and the “Feel of the hair” value is recorded as “more pleasant feel of the hair”. Moreover, the “Prevention of adsorption of sodium lauryl ether sulfate onto skin” value in assay [2] is “prevented considerably more effectively”. The “Skin feel (softness), sensory assessment” value in assay [3] is reported as “felt to be softer”.

The values above are taken from patent US20060018857A1, “Conditioning surface-active preparation” (priority 2004, published 2006).
